Source: patent US20170304336A1, “COMBINATION” (priority 2014, published 2017)

What was measured:
Assay type in all cases: in vivo, male rats of Wistar line
[1] = system: experimental rat hypercholesterolemia model; test: Lipid spectrum of blood in experimental rat hypercholesterolemia model
Protocol: The animals used were male rats of Wistar line. […] The proposed model using rats as the experimental animals is a reproducible standard model for evaluation of hypocholesterolemic effect.
(§1) Evaluation of hypocholesterolemic efficacy and safety of pharmaceutical combination was performed in vivo in experimental rat hypercholesterolemia model.
(§2) For 90 days the studied animals received hypercholesterol diet for pathology induction. The diet included Cholesterol+Cholic acid+Overheated fats (deep fat).
For 90 days the animals received the said ration ad libitum (30 g feed per animal). Development of hypercholesterolemia in animals was evaluated based on changes in lipid spectrum parameters on Day 30 of the study.
(§3) Drugs were introduced intragastrically with an esophageal bougie daily on Day 31-90 of the study at the same time of day.
Biochemical parameters and activity of blood serum enzymes (total cholesterol (CHS), LDL-CHS, HDL-CHS, triglycerides.
1.0-1.84 ml blood samples for the study of biochemical parameters were taken from tail vein of rats. Blood samples were taken from the animals after 14-15-hour's fasting at same time of day (9.00-11.00). For biochemical parameters tests a Biochemical Analyzer A-25 (Biosystems, Spain) was used. […]

[2] = system: experimental rat hypercholesterolemia model; test: Biochemical blood analysis (drug toxicity parameters) in rat hypercholesterolemia model
Protocol: as §1, §2, §3
Biochemical parameters and activity of serum enzymes (aspartate- and alanine aminotransferase, creatine phosphokinase, urea, serum amylase, total bilirubin, direct bilirubin, indirect bilirubin, serum glucose, cations K^+, Na^+).
1.0-1.84 ml blood samples for the study of biochemical parameters were taken from tail vein of rats. Blood samples were taken from the animals after 14-15-hour's fasting at same time of day (9.00-11.00). For biochemical parameters tests a Biochemical Analyzer A-25 (Biosystems, Spain) was used.
Vol. 4. pp. 1794-1798; Pearlman F C and Lee R T Y. Clin Chem 1974, 20, 447-453; Zoppi F et al, Peracino A., Fenili D., Marcovina S. and Ramella C. Giorn It Chim Cl. […] C. et al Clin Chem. 1974. Vol. 20. pp. 470-475; and in Meiattini F., et al, Clin Chem. 1978. Vol. 24. pp. 2161-2165 (total cholesterol); Warnick G R et al. Clin Chem 2001, 47, 1579-96 (HDL/LDL); Bucolo G and David H. Clin Chem. 1973.-Vol. 19. pp. 476-482; and in Fossati P. and, Prencipe L., Clin Chem. 1982. Vol. 28. pp. 2077-2080 (triglycerides); Trinder P. Ann Clin Biochem. 1969. Vol. 6. pp. 24-27).

[3] = Mass coefficients of organs (pancreas, liver, kidneys) of rats; details: M ± m; for weight coefficient, Kidneys / weight coefficient, Liver: in %
Protocol: To calculate mass coefficients the pancreas, liver and kidneys of the animals were extracted. The organs were weighed and the mass coefficients were calculated by the following formula:
Mass coefficient=(organ weight/animal body weight)×100%

[4] = Day 30 of treatment (Day 60 of study), dose 20 mg
[5] = Day 30 of treatment (Day 60 of study), dose 40 mg
[6] = Day 30 of treatment, 20 mg as monotherapy
[7] = Day 60 of treatment (Day 90 of study), dose 20 mg
[8] = Day 60 of treatment (Day 90 of study), dose 40 mg
[9] = blood, Day 60 of the treatment (Day 90 of the study), LV + SGA 20 + 108 mg, LV 20 mg, SGA 108 mg
[10] = LV + SGA 20 + 108 mg, LV 20 mg, SGA 108 mg
[11] = Day 30 of treatment (Day 60 of study), dose 108 mg
[12] = blood, Day 60 of the treatment (Day 90 of the study), PV + GtA 40 + 108 mg, PV 20 mg, GtA 108 mg
[13] = PV + GtA 40 + 108 mg, PV 40 mg, GtA 108 mg
[14] = Day 60 of treatment (Day 90 of study), dose 108 mg
[15] = group 3 of the rosuvastatin table, 20 mg

In the case of `CCC(C)(C)C(=O)O[C@H]1C[C@@H](C)C=C2C=C[C@H](C)[C@H](CC[C@@H]3C[C@@H](O)CC(=O)O3)[C@H]21` [SV, (1S,3R,7S,8S,8aR)-8-{2-[(2R,4R)-4-hydroxy-6-oxotetrahydro-2H-pyran-2-yl]ethyl}-3,7-dimethyl-1,2,3,7,8,8a-hexahydronaphthalen-1-yl 2,2-dimethylbutanoate], the “HDL CHS” value [1, 4] was 0.82 ± 0.06 mmol/L, the “LDL CHS” value [1, 4] was 3.75 ± 0.25 mmol/L and the TG [1, 4] was 1.41 ± 0.11 mmol/L. The “Total CHS” value [1, 4] was 5.2 ± 0.2 mmol/L, the “HDL CHS” value [1, 5] was 0.58 ± 0.02 mmol/L and the “LDL CHS” value [1, 5] was 3.54 ± 0.20 mmol/L. For the same compound, the TG [1, 5] was 1.27 ± 0.04 mmol/L, the “Total CHS” value [1, 5] was 4.2 ± 0.2 mmol/L and the “LDL decrease as compared to the control group” value [1, 6] was 35%. For the same compound, the “TG decrease as compared to the control group” value [1, 6] was 18%, the “decrease of the concentration of CHS as compared to the control group” value [1, 6] was 26% and the “increase in concentration of HDL as compared to the control group” value [1, 6] was 86%. The “HDL CHS” value [1, 7] was 0.77 ± 0.05 mmol/L, the “LDL CHS” value [1, 7] was 3.50 ± 0.05 mmol/L and the TG [1, 7] was 1.43 ± 0.11 mmol/L. For the same compound, the “Total CHS” value [1, 7] was 4.9 ± 0.3 mmol/L, the “HDL CHS” value [1, 8] was 0.91 ± 0.02 mmol/L and the “LDL CHS” value [1, 8] was 3.20 ± 0.1 mmol/L. For the same compound, the TG [1, 8] was 1.09 ± 0.05 mmol/L and the “Total CHS” value [1, 8] was 3.8 ± 0.1 mmol/L.

Work on `CC[C@H](C)C(=O)O[C@H]1C[C@@H](C)C=C2C=C[C@H](C)[C@H](CC[C@@H]3C[C@@H](O)CC(=O)O3)[C@H]21` [LV, (1S,3R,7S,8S,8aR)-8-{2-[(2R,4R)-4-hydroxy-6-oxooxan-2-yl]ethyl}-3,7-dimethyl-1,2,3,7,8,8a-hexahydronaphthalen-1-yl (2S)-2-methylbutanoate] yielded an ALT [2, 4] of 160 U/l, an AST [2, 4] of 183 U/l and an Amylase [2, 4] of 646 U/l. For the same compound, the Bilirubin direct [2, 4] was 2.1 mg/dL, the Bilirubin indirect [2, 4] was 2.1 mg/dL and the Bilirubin total [2, 4] was 4.6 mg/dL. It also gave a CPK [2, 4] of 510 U/l, a Glucose [2, 4] of 139 mg/dL and a Sodium [2, 4] of 128 mmol. The Urea [2, 4] was 7.3 mmol/L, the ALT [2, 9] was 141 U/l and the AST [2, 9] was 190 U/l. The Amylase [2, 9] was 597 U/l, the Bilirubin direct [2, 9] was 4.4 mg/dL and the Bilirubin indirect [2, 9] was 2.3 mg/dL. It also gave a Bilirubin total [2, 9] of 4.4 mg/dL, a CPK [2, 9] of 597 U/l and a Glucose [2, 9] of 148 mg/dL. For the same compound, the Sodium [2, 9] was 128 mmol, the Urea [2, 9] was 6.0 mmol/L and the “weight coefficient, Pancreas” value ([3]; LV 40 mg) was 0.48 ± 0.03^1. For the same compound, the “weight coefficient, Kidneys” value ([3]; LV 40 mg) was 0.77 ± 0.01, the “weight coefficient, Liver” value ([3]; LV 40 mg) was 4.46 ± 0.15 and the “weight coefficient, Pancreas” value [3, 10] was 0.35 ± 0.04. The “weight coefficient, Kidneys” value [3, 10] was 0.74 ± 0.02, the “weight coefficient, Liver” value [3, 10] was 4.45 ± 0.11 and the “HDL CHS” value [1, 4] was 0.64 ± 0.05 mmol/L. For the same compound, the “LDL CHS” value [1, 4] was 4.25 ± 0.44 mmol/L, the TG [1, 4] was 1.31 ± 0.12 mmol/L and the “Total CHS” value [1, 4] was 5.6 ± 0.1 mmol/L. The “HDL CHS” value [1, 5] was 0.89 ± 0.01 mmol/L, the “LDL CHS” value [1, 5] was 3.82 ± 0.20 mmol/L and the TG [1, 5] was 1.22 ± 0.03 mmol/L. For the same compound, the “Total CHS” value [1, 5] was 4.5 ± 0.2 mmol/L, the “HDL CHS” value [1, 7] was 0.74 ± 0.04 mmol/L and the “LDL CHS” value [1, 7] was 3.92 ± 0.43 mmol/L. The TG [1, 7] was 1.21 ± 0.11 mmol/L, the “Total CHS” value [1, 7] was 4.8 ± 0.2 mmol/L and the “HDL CHS” value [1, 8] was 0.90 ± 0.01 mmol/L. The “LDL CHS” value [1, 8] was 3.43 ± 0.23 mmol/L, the TG [1, 8] was 1.20 ± 0.03 mmol/L and the “Total CHS” value [1, 8] was 4.1 ± 0.3 mmol/L.

Work on `CC1(C)[C@@H](O)CC[C@]2(C)[C@H]3C(=O)C=C4[C@@H]5C[C@@](C)(C(=O)O)CC[C@]5(C)CC[C@@]4(C)[C@]3(C)CC[C@@H]12` [GtA, (2S,4aS,6aS,6bR,8aR,10S,12aS,12bR,14bR)-10-hydroxy-2,4a,6a,6b,9,9,12a-heptamethyl-13-oxo-1,2,3,4,4a,5,6,6a,6b,7,8,8a,9,10,11,12,12a,12b,13,14b-icosahydropicene-2-carboxylic acid] yielded an ALT [2, 11] of 97 U/l, an AST [2, 11] of 130 U/l and an Amylase [2, 11] of 622 U/l. The Bilirubin direct [2, 11] was 1.1 mg/dL, the Bilirubin indirect [2, 11] was 1.7 mg/dL and the Bilirubin total [2, 11] was 3.2 mg/dL. The CPK [2, 11] was 390 U/l, the Glucose [2, 11] was 119 mg/dL and the Potassium [2, 11] was 2.8 mM. It also gave a Urea [2, 11] of 6.5 mmol/L, an ALT [2, 12] of 101 U/l and an AST [2, 12] of 120 U/l. The Amylase [2, 12] was 599 U/l, the Bilirubin direct [2, 12] was 1.2 mg/dL and the Bilirubin indirect [2, 12] was 1.8 mg/dL. For the same compound, the Bilirubin total [2, 12] was 2.7 mg/dL, the CPK [2, 12] was 300 U/l and the Glucose [2, 12] was 112 mg/dL. The Potassium [2, 12] was 3.1 mM, the Urea [2, 12] was 5.5 mmol/L and the “weight coefficient, Pancreas” value [3, 13] was 0.21 ± 0.01^2. The “weight coefficient, Kidneys” value [3, 13] was 0.80 ± 0.02, the “weight coefficient, Liver” value [3, 13] was 4.43 ± 0.10 and the “HDL CHS” value [1, 11] was 0.51 ± 0.04 mmol/L. The “LDL CHS” value [1, 11] was 4.40 ± 0.4 mmol/L, the TG [1, 11] was 1.6 ± 0.11 mmol/L and the “Total CHS” value [1, 11] was 4.9 ± 0.5 mmol/L. The “HDL CHS” value [1, 14] was 0.61 ± 0.03 mmol/L, the “LDL CHS” value [1, 14] was 4.24 ± 0.4 mmol/L and the TG [1, 14] was 1.5 ± 0.11 mmol/L. The “Total CHS” value [1, 14] was 4.5 ± 0.5 mmol/L.

Work on `CC[C@H](C)C(=O)OC1C[C@H](O)C=C2C=C[C@H](C)C(CC[C@@H](O)C[C@@H](O)CC(=O)O)[C@H]21` (stereo in doubt) [PV, (3R,5R)-3,5-dihydroxy-7-((1R,2S,6S,8R,8aR)-6-hydroxy-2-methyl-8-{[(2S)-2-methylbutanoyl]oxy}-1,2,6,7,8,8a-hexahydronaphthalen-1-yl)-heptanoic acid] yielded an ALT [2, 5] of 177 U/l, an AST [2, 5] of 173 U/l and an Amylase [2, 5] of 641 U/l. The Bilirubin direct [2, 5] was 2.8 mg/dL, the Bilirubin indirect [2, 5] was 2.2 mg/dL and the Bilirubin total [2, 5] was 4.7 mg/dL. For the same compound, the CPK [2, 5] was 604 U/l, the Glucose [2, 5] was 150 mg/dL and the Potassium [2, 5] was 3.4 mM. It also gave a Sodium [2, 5] of 127 mmol, a Urea [2, 5] of 7.0 mmol/L and an ALT [2, 12] of 135 U/l. The AST [2, 12] was 188 U/l, the Amylase [2, 12] was 586 U/l and the Bilirubin direct [2, 12] was 2.7 mg/dL. It also gave a Bilirubin indirect [2, 12] of 1.9 mg/dL, a Bilirubin total [2, 12] of 4.9 mg/dL and a CPK [2, 12] of 598 U/l. For the same compound, the Glucose [2, 12] was 160 mg/dL, the Potassium [2, 12] was 4.3 mM and the Sodium [2, 12] was 129 mmol. The Urea [2, 12] was 6.0 mmol/L, the “weight coefficient, Pancreas” value [3, 13] was 0.47 ± 0.03^1 and the “weight coefficient, Kidneys” value [3, 13] was 0.76 ± 0.01. The “weight coefficient, Liver” value [3, 13] was 4.47 ± 0.17, the “weight coefficient, Pancreas” value [3, 15] was 0.49 ± 0.03^1 and the “weight coefficient, Kidneys” value [3, 15] was 0.78 ± 0.02. The “weight coefficient, Liver” value [3, 15] was 4.49 ± 0.15, the “HDL CHS” value [1, 5] was 0.65 ± 0.04 mmol/L and the “LDL CHS” value [1, 5] was 4.12 ± 0.35 mmol/L. The TG [1, 5] was 1.33 ± 0.12 mmol/L, the “Total CHS” value [1, 5] was 4.4 ± 0.3 mmol/L and the “HDL CHS” value [1, 8] was 0.75 ± 0.04 mmol/L. For the same compound, the “LDL CHS” value [1, 8] was 3.70 ± 0.35 mmol/L, the TG [1, 8] was 1.33 ± 0.11 mmol/L and the “Total CHS” value [1, 8] was 4.0 ± 0.3 mmol/L.
